The source of these data is patent US8106007B2, “Conjugates of a polypeptide and a pentasaccharide” (N.V. Organon, priority 2005, dated 2012).

Where two headings read alike, the source gives them in different places. Where a SMILES comes first, the peptide text is derived from it. [ ]: non-standard residue; d: D form. The star is where a group is joined. X1 = CO[C@H]1O[C@H](COS(=O)(=O)O)[C@@H](O[C@@H]2O[C@@H](C(=O)O)[C@@H](O[C@H]3O[C@H](COS(=O)(=O)O)[C@@H](O[C@@H]4O[C@H](C(=O)O)[C@@H](O[C@H]5O[C@H](COS(=O)(=O)O)[C@@H](OCCOCCOCCOCCNC(=O)COCCOCCOCCOCCSC6CC(=O)N(CCCC(=O)*)C6=O)[C@H](OC)[C@H]5OC)[C@H](OC)[C@H]4OC)[C@H](OS(=O)(=O)O)[C@H]3OS(=O)(=O)O)[C@H](OC)[C@H]2OC)[C@H](OS(=O)(=O)O)[C@H]1OS(=O)(=O)O; d(hArg(Et2)) = CCN=C(NCC)NCCCC[C@@H](N)C(=O)O; hArg(Et2) = CCN=C(NCC)NCCCC[C@H](N)C(=O)O; dPhe(4-Cl) = N[C@H](Cc1ccc(Cl)cc1)C(=O)O; d2Nal = N[C@H](Cc1ccc2ccccc2c1)C(=O)O; d3Pal = N[C@H](Cc1cccnc1)C(=O)O

A short description of data set [1]: Pharmacokinetics in rat after 125I labeling, not corrected for dehalogenation. As to the method: (§1) After labeling, the conjugate was purified by gel filtration on Sephadex G25 and anion exchanger HiTrap Q10. […] In order to prevent accumulation of ^125I^− in the thyroid, rats were orally treated with 10 mg/kg potassium iodide prior to administration of compound.
The correct determination of the fate of ^125I-labeled conjugates might be affected aversely by metabolic intracellular endogenous dehalogenation to give free ^125I^− in circulation.

Data set [2] has as its target hATIII (Homo sapiens, UniProt P01008). In words: Competitive hATIII binding assay using Biomolecular Interaction Analysis (BIA). As to conditions: for competitive binding potential to ATIII (in words): compared to parent pentasaccharide-spacer residue / parent peptide; for IC50: 15 nmol/L hATIII, compound 9 immobilised on chip, 25° C., read-out: IC50 BIA (competitive ATIII binding). As to the method:
The sensorgrams and report points were analysed with blanc flow cell subtraction using BIAevaluation 3.2. IC50 values were calculated using graphpad Prism 3.0.
Principle and aim of the test: Biomolecular Interaction Analysis (BIA) studies the interaction between (bio)molecules by covalent immobilisation of one of the interactants to a sensor chip surface, and injection of the other interactant in the continuous buffer flow over this surface. Binding is registered as a change in refractive index on this surface and is proportional to the molecular weight (Mw) of the interactants.
To study the interaction between hATIII and pentasaccharide conjugates, compound 9 is covalently coupled to the sensor chip surface. Binding of hATIII to the pentasaccharide generates a strong signal as a resultant of the difference in Mw between the bound (small) pentasaccharide ligand and the (large) hATIII analyte. Preincubated samples containing a constant concentration of hATIII and variable concentrations of free pentasaccharide or conjugate were injected over the surface. Binding of pentasaccharide or conjugate to ATIII during preincubation will result in a reduction of ATIII binding to the immobilised pentasaccharide. This competitive binding assay allows determination of IC50 values for each pentasaccharide conjugate.
Experimental procedure: Compound 9 is covalently coupled to a CM5 sensor chip by amine coupling at pH 8.5. […] The unreacted hydroxysuccinimide groups are reacted with ethanolamine for 7 min. The surface is regenerated by three short injections of 5 μL 5 mol/L NaCl, at a flow rate of 25 μL/min.
A concentration series of hATIII was tested to estimate a sensitive concentration for inhibition (at 80% of maximum binding). At a flow rate of 20 μL/min three minute injections were carried out at both blanc and immobilised surface in series at 25° C. A report point is generated at 170 s. The surface is regenerated by a 12 s injection of 5 mol/L NaCl.
The hATIII injection or report point without pentasaccharide conjugate is set at 100% binding. The relative % binding of the pentasaccharides and the conjugates compared to maximum binding was used to generate a sigmoidal curve (with variable slope) by plotting Log [concentration] vs. % binding from which the IC50 values were derived.

For data set [3] the following is noted: species not given; cited from earlier work.
For data set [4] the following is noted: in rat, i.v., Chan et al. 1991; cited from earlier work.
Data set [5] relates to glucose levels. In words: Glucose suppression test in vivo in rats. The arrangement: species or system rat. As to conditions: i.v. doses of 24 and 48 nmol/kg (FIG. 21, 22).
Description: The animals were fasted overnight (16 hours) prior to the experiment. In the morning blood was sampled from all the rats by cutting a little piece of the tail, after which the blood was dropped on a test strip and the glucose levels were measured with an ACCU-Check Sensor blood glucose monitor (Roche Diagnostics). […] At various time intervals blood samples were taken by removing the crusted blood, after which the glucose content was determined immediately as described.
For data set [6] the following is noted: rat, in vivo, iv. As to the method:
as §1

Data set [7] deals with T1, rat ATIII (Rattus norvegicus, UniProt A0A8I5Y9G3).
T1 construct: from tissue; host or cells: plasma of male Wistar rats
Description: Determination of (poly)peptide-pentasaccharide-ATIII complex in rat plasma (sandwich ELISA). Type of data set: binding. As to conditions: plasma 1 min after i.v. 3.5 nmol/kg in rat. (In general: In an ELISA, binding on a coated surface is turned into a signal by an enzyme label.)

The conditions of data set [8]: rat, in vivo, iv, 3.5 nmol/kg.
Description: The human Enzyme-Linked Immuno-Sorbent Assay (ELISA) has been developed to measure human insulin in human and rat plasma or buffer system. In this way the ELISA could be used to determine the insulin concentration in plasma samples derived from pharmacokinetic experiments.
The assay is based on the immunochemical “sandwich” principle using two monoclonal antibodies, i.e. a solid phase bound, capture antibody and a detection antibody which is labeled with horseradish peroxidase (HRP).
The plate was washed to remove unbound enzyme-labeled antibody and subsequently the 3,3′,5,5′-tetramethylbenzidine/H2O2 substrate solution was added. The reaction was stopped with 0.5 M sulphuric acid and the microtiter plate was read spectrophotometrically at 450 nm. The intensity of colour is directly proportional to the concentration of insulin. Then for each plasma sample the mean concentration (mol/L) of insulin was determined.
The rats were anaesthetized by inhalation of a mixture of O2/N2O/isoflurane, after which the right jugular vein was cannulated. […] Blood was centrifuged after which the plasma was siphoned off and stored at −20° C. until use. The concentration of the tested compounds in the plasma samples were determined using the human ELISA against a calibration curve which was made of the stock solution of the tested compound itself. The concentration in the samples was expressed in nmol/L and the kinetic parameters were calculated with the noncompartment model of WinNonlin.
Where [9] appears, read: Table 6, rat, i.v., 125I label, not corrected for dehalogenation, n = 3.

Sequence of hATIII (P01008 33-464): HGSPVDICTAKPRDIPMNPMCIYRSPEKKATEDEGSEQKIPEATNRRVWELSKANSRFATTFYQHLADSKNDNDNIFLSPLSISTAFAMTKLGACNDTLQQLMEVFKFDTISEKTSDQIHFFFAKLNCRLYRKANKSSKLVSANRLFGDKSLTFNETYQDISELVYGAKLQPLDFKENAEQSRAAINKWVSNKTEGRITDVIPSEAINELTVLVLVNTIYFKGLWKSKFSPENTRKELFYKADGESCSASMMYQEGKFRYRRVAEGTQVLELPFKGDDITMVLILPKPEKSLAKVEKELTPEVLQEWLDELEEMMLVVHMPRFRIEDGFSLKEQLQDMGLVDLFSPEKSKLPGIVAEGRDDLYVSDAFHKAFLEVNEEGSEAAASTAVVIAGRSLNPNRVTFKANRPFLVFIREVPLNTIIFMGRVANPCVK
T1 sequence (A0A8I5Y9G3 35-465): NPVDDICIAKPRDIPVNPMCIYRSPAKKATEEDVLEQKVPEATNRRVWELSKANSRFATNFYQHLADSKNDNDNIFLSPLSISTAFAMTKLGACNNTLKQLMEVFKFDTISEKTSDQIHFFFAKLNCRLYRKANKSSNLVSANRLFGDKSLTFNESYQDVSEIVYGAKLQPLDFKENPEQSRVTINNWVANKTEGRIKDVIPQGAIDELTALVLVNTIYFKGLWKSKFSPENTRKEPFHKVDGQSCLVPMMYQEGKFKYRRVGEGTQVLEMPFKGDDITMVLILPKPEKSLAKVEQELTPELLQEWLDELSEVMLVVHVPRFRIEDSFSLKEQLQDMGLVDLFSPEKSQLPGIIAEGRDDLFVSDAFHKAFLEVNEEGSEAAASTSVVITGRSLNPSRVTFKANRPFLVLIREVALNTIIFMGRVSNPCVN

With `CC[C@H](C)[C@H](NC(=O)[C@H](CCC(N)=O)NC(=O)[C@H](Cc1c[nH]cn1)NC(=O)[C@H](C)N)C(=O)N[C@@H](Cc1ccc(O)cc1)C(=O)N[C@@H](CCC(N)=O)C(=O)N[C@@H](Cc1ccccc1)C(=O)N[C@H](C(=O)N[C@@H](CC(=O)O)C(=O)N[C@@H](CCCCN)C(=O)N[C@@H](CC(=O)O)C(=O)N[C@@H](CCCCN)C(=O)N[C@@H](CC(=O)O)C(=O)N[C@@H](CC(N)=O)C(=O)N[C@H](C(=O)N[C@@H](C)C(=O)N1CCC[C@H]1C(=O)N[C@@H](CCCNC(=N)N)C(=O)N[C@@H](CO)C(=O)N[C@@H](CCCCN)C(=O)N[C@H](C(=O)N[C@@H](CO)C(=O)N1CCC[C@H]1C(=O)N[C@@H](CCC(N)=O)C(=O)NCC(=O)N[C@@H](Cc1ccc(O)cc1)C(N)=O)[C@@H](C)CC)C(C)C)[C@@H](C)O` [ADM(27-52)] (H-AHQIYQFTDKDKDNVAPRSKISPQGY-NH2; N-terminus and C-terminus assumed), in data set [1] (rat, in vivo, iv), the Cl turned out to be 112 ± 9 mL/h and the Vss came to 556 ± 48 ml/rat. Also, the “competitive binding potential to ATIII (in words)” value in data set [2] is reported as “no significant competitive binding to ATIII”.

One may read the IC50 as the concentration that gives 50% inhibition. For the molecule `COC[C@H]1O[C@H](OC)[C@H](OS(=O)(=O)O)[C@@H](OC)[C@@H]1O[C@@H]1O[C@@H](C(=O)O)[C@@H](O[C@H]2O[C@H](COS(=O)(=O)O)[C@@H](O[C@@H]3O[C@H](C(=O)O)[C@@H](O[C@H]4O[C@H](COS(=O)(=O)O)[C@@H](OCCOCCOCCOCCN)[C@H](OC)[C@H]4OC)[C@H](OC)[C@H]3OC)[C@H](OS(=O)(=O)O)[C@H]2OS(=O)(=O)O)[C@H](OC)[C@H]1OC` [Compound 7], the IC50 in data set [2] stood at 96 nM.

For the molecule `COC1OC(COS(=O)(=O)O)C(OC2OC(C(=O)O)C(OC3OC(COS(=O)(=O)O)C(OC4OC(C(=O)O)C(OC5OC(COS(=O)(=O)O)C(OCCOCCOCCOCCN)C(OC)C5OC)C(OC)C4OC)C(OS(=O)(=O)O)C3OS(=O)(=O)O)C(OC)C2OC)C(OC)C1OS(=O)(=O)O` (stereo not drawn) [Compound 8], the half-inhibitory concentration (IC50) in data set [2] was 58 nM.

For `COC1OC(COS(=O)(=O)O)C(OC2OC(C(=O)O)C(OC3OC(COS(=O)(=O)O)C(OC4OC(C(=O)O)C(OC5OC(COS(=O)(=O)O)C(OCCOCCOCCOCCN)C(OC)C5OC)C(OC)C4OC)C(OS(=O)(=O)O)C3OS(=O)(=O)O)C(OC)C2OC)C(OS(=O)(=O)O)C1OS(=O)(=O)O` (stereo not drawn) [Compound 9], the half-inhibitory concentration (IC50) in data set [2] was determined as 5.5 nM.

In data set [1] (setting [9]), `CC[C@H](C)[C@H](NC(=O)[C@H](CCC(N)=O)NC(=O)[C@H](Cc1c[nH]cn1)NC(=O)[C@H](C)NC(=O)CCCN1C(=O)CC(SCCOCCOCCOCCOCC(=O)NCCOCCOCCOCCO[C@H]2[C@H](OC)[C@@H](OC)[C@@H](O[C@H]3[C@H](OC)[C@@H](OC)[C@H](O[C@H]4[C@H](OS(=O)(=O)O)[C@@H](OS(=O)(=O)O)[C@@H](O[C@H]5[C@H](OC)[C@@H](OC)[C@H](O[C@H]6[C@H](OS(=O)(=O)O)[C@@H](OS(=O)(=O)O)[C@@H](OC)O[C@@H]6COS(=O)(=O)O)O[C@H]5C(=O)O)O[C@@H]4COS(=O)(=O)O)O[C@@H]3C(=O)O)O[C@@H]2COS(=O)(=O)O)C1=O)C(=O)N[C@@H](Cc1ccc(O)cc1)C(=O)N[C@@H](CCC(N)=O)C(=O)N[C@@H](Cc1ccccc1)C(=O)N[C@H](C(=O)N[C@@H](CC(=O)O)C(=O)N[C@@H](CCCCN)C(=O)N[C@@H](CC(=O)O)C(=O)N[C@@H](CCCCN)C(=O)N[C@@H](CC(=O)O)C(=O)N[C@@H](CC(N)=O)C(=O)N[C@H](C(=O)N[C@@H](C)C(=O)N1CCC[C@H]1C(=O)N[C@@H](CCCNC(=N)N)C(=O)N[C@@H](CO)C(=O)N[C@@H](CCCCN)C(=O)N[C@H](C(=O)N[C@@H](CO)C(=O)N1CCC[C@H]1C(=O)N[C@@H](CCC(N)=O)C(=O)NCC(=O)N[C@@H](Cc1ccc(O)cc1)C(N)=O)[C@@H](C)CC)C(C)C)[C@@H](C)O` (stereo partly drawn) [Compound 39] (X1-AHQIYQFTDKDKDNVAPRSKISPQGY-NH2) came in with a Cl of 5.0 ± 0.1 mL/h and a Vss of 80 ± 3.3 ml/rat.

In turn, `[125IH]` [^125I^−] gave an elimination half-life in data set [1] (rats, control, data not shown) of 192 min.

On to `CCN=C(NCC)NCCCC[C@H](NC(=O)[C@H](CC(C)C)NC(=O)[C@@H](CCCCNC(=NCC)NCC)NC(=O)[C@H](Cc1ccc(O)cc1)NC(=O)[C@H](CO)NC(=O)[C@@H](Cc1cccnc1)NC(=O)[C@@H](Cc1ccc(Cl)cc1)NC(=O)[C@@H](Cc1ccc2ccccc2c1)NC(C)=O)C(=O)N1CCC[C@H]1C(=O)N[C@H](C)C(N)=O` [ganirelix] (Ac-[d2Nal][dPhe(4-Cl)][d3Pal]SY[d(hArg(Et2))]L[hArg(Et2)]P[dA]-NH2), for which the “t ½” value in data set [3] was 720 min. Further, the “competitive binding potential to ATIII (in words)” value in data set [2] is “no competitive binding to ATIII”. For the same molecule, the T½ in data set [4] was 84 min.

As for `C[C@@H](O)[C@@H]1NC(=O)[C@H](CCCCN)NC(=O)[C@@H](Cc2c[nH]c3ccccc23)NC(=O)[C@H](Cc2ccccc2)NC(=O)[C@@H](NC(=O)[C@H](N)Cc2ccccc2)CSSC[C@@H](C(=O)N[C@H](CO)[C@@H](C)O)NC1=O` [octreotide], the “t ½” value in data set [3] is 102 min.

For calcitonin, in data set [3], the “t ½” value is listed as 20 min.

Regarding insulin detemir, in data set [5], the “blood glucose lowering activity (comparative example)” value is “less pronounced and less prolonged activity”.

Broadly, the MRT is a mean duration of stay, worked out from the concentration-time curve. In data set [6], “recH insulin: recombinant human insulin (batch SIHR017, from Diosynth)” came in with an AUCinf of 481 h · cpm/0.1 mL, a Cl of 69.3 mL/min/kg, an MRT of 30 min and a Vss of 2.225 L/kg. Moreover, in data set [7], the “binding to rat ATIII in circulation (complex detected)” value was “cannot form a complex with ATIII”. In data set [8], this molecule came in with a Cl of 13.3 ± 2 mL/min/kg, a mean residence time MRT of 0.84 ± 6 min, a T½ eli of 1.98 ± 0.06 min and a Vss of 0.012 ± 0.002 L/kg.
